Data on 26 compounds can be found in patent US6548494B1, “Tricyclic inhibitors of poly(ADP-ribose) polymerases” (Agouron Pharmaceuticals, Inc., priority 1999, dated 2003).

Data set [1] deals with purified PARP protein (Homo sapiens, UniProt P09874). In words: PARP enzyme inhibition assay. As to conditions: 20 nM purified PARP (5 nM for tight-binding inhibitors), 500 μM NAD+, 25° C.; several values in one cell = repeat determinations; read-out: Inhibition Constant Ki. In kind it is biochemical.
Data set [2] has as its system A549 cells. The experiment in a line: Cytotoxicity potentiation assay. In kind it is cell-based. As to conditions: test compound 0.4 μM, ratio of IC50 of topotecan alone to IC50 of topotecan with test compound. Here is the method:
A549 cells (ATCC, Rockville, Md.) were seeded into 96-well cell culture plates (Falcon brand, Fisher Scientific, Pittsburgh, Pa.) 16 to 24 hours before experimental manipulation. Cells were then treated with a test compound (or a combination of test compounds where indicated) each at a concentration of 0.4 μM for either 3 days or 5 days. At the end of treatments, relative cell number was determined either by MTT assay or SRB assay. For the MTT assay, 0.2 μg/μl of MTT (3-(4,5-dimethylthiazol-2-yl)-2,5-diphenyltetrazolium bromide) (Sigma Chemical Co., St. Louis, Mo.) was added to each well of a plate, and the plate was incubated in a cell-culture incubator for 4 hours. Metabolized MTT in each well was solubilized in 150 μl of DMSO (Sigma Chemical Co.) with shaking and quantified with a Wallac 1420 Victor plate reader (EG&G Wallac, Gaithersburg, Md.) at 540 nm. For the SRB assay, cells were fixed with 10% trichloroacetic acid (Sigma Chemical Co) for an hour at 4° C. After extensively washing, fixed cells were stained for 30 minutes with 0.4% sulforhodamine B (SRB, Sigma Chemical Co.) in 1% acetic acid (Sigma Chemical Co). Unbound SRB was washed away with 1% acetic acid. Then the cultures were air-dried, and dye was solubilized with 10 mM unbuffered Tris base (Sigma Chemical Co) with shaking. The bound dye was measured photometrically with the Wallac Victor plate reader at 515 nm. The ratio of the OD (optical density) value of a compound-treated culture to the OD value of a mock-treated culture, expressed in percentage, was used to quantify the cytotoxicity of a compound. […] To quantify the potentiation of the cytotoxicity of topotecan or temozolomide by test compounds, a dimensionless parameter PF50 is used and is defined as the ratio of the IC50 of topotecan or temozolomide alone to the IC50 of topotecan or temozolomide in combination with a test compound. For the compounds of the invention, PF50 values were determined by testing with topotecan.

Values joined by “and” are separate entries in the source; they are usually repeats but may differ in a detail not shown here. Identical values can stand only once.

Sequence of purified PARP protein (P09874 whole entry): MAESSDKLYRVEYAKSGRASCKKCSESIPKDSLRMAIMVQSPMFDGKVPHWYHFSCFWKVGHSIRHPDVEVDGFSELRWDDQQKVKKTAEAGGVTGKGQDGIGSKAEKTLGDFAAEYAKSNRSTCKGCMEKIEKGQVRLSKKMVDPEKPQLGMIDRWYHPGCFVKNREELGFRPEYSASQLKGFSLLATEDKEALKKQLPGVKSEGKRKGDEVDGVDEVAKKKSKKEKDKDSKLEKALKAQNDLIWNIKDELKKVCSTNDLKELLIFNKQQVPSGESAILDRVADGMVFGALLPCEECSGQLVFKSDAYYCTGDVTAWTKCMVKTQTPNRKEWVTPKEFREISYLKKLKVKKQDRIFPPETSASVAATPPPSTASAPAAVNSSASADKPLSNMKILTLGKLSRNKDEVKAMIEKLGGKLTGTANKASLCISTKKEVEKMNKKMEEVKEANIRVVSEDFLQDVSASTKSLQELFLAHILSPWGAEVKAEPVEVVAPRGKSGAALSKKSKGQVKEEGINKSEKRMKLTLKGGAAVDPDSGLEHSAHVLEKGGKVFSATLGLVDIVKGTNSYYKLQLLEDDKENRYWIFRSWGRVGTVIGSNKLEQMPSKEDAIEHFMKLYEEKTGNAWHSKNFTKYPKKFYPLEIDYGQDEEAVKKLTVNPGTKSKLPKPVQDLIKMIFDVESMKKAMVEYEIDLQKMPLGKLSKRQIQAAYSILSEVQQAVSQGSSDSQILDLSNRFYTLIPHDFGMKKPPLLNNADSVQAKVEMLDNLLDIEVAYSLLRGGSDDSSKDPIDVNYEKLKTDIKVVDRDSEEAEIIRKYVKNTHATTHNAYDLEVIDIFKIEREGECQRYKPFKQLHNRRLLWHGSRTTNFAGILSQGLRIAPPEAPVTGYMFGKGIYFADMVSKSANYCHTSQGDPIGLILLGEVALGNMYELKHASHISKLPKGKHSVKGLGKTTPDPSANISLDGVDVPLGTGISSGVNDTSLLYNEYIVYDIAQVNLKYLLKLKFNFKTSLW

Regarding `O=C1NCCn2c(-c3ccncc3)nc3cccc1c32` [Example 3, 1-Pyridin-4-yl-8,9-dihydro-7H-2,7,9a-triaza-benzo[cd]azulen-6-one], the melting point is 269 °C (dec.). In addition, the Ki in data set [1] is 10.9 nM and 12 nM. Also, the “Cytotoxicity Potentiation PF50” value in data set [2] was determined as 1.4.
The compound `O=C1NCCn2c(-c3ccc(F)c(F)c3)nc3cccc1c32` [Example 4, 1-(3,4-Difluoro-phenyl)-8,9-dihydro-7H-2,7,9a-triaza-benzo[cd]azulen-6-one] came in with a melting point of 245 to 247 °C. The Ki in data set [1] was 6.5 nM. The “Cytotoxicity Potentiation PF50” value in data set [2] is 1.5.
Compound `O=C1NCCn2c(-c3ccccc3Cl)nc3cccc1c32` [Example 5, 1-(2-Chloro-phenyl)-8,9-dihydro-7H-2,7,9a-triaza-benzo[cd]azulen-6-one] yielded a melting point of 253 to 255 °C. The Ki in data set [1] was 7.7 nM. The “Cytotoxicity Potentiation PF50” value in data set [2] amounted to 1.3.
In the same order, the values of `O=C1NCCn2c(-c3cccc(Oc4ccccc4)c3)nc3cccc1c32` [Example 6, 1-(3-Phenoxy-phenyl)-8,9-dihydro-7H-2,7,9a-triaza-benzo[cd]azulen-6-one] are 216 to 219 °C, 4.3 nM and 2.
The matching figures for `O=C1NCCn2c(-c3cccs3)nc3cccc1c32` [Example 8, 1-Thiophen-2-yl-8,9-dihydro-7H-2,7,9a-triaza-benzo[cd]azulen-6-one]: 247 to 250 °C, 6.2 nM and 1.9.
On to `O=C1NCCn2c(-c3cccc(C(F)(F)F)c3)nc3cccc1c32` [Example 10, 1-(3-Trifluoromethyl-phenyl)-8,9-dihydro-7H-2,7,9a-triaza-benzo[cd]azulen-6-one], for which the melting point fell in the range of 250 to 252 °C. Also, the inhibition constant (Ki) in data set [1] is 11.2 nM. The “Cytotoxicity Potentiation PF50” value in data set [2] was 1.7.
For the compound `O=C1NCCn2c(-c3ccccn3)nc3cccc1c32` [Example 12, 1-Pyridin-2-yl-8,9-dihydro-7H-2,7,9a-triaza-benzo[cd]azulen-6-one], the melting point lay in the range of 249 to 250 °C. In data set [1], the Ki is 21 nM and 17 nM. The “Cytotoxicity Potentiation PF50” value in data set [2] turned out to be 1.3.
As to `O=C1NCCn2c(-c3ccc(Cl)cc3)nc3cccc1c32` [Example 14, 1-(4-Chloro-phenyl)-8,9-dihydro-7H-2,7,9a-triaza-benzo[cd]azulen-6-one], the melting point fell in the range of 272 to 274 °C. Further, the Ki in data set [1] was 5.7 nM and 7.6 nM. The “Cytotoxicity Potentiation PF50” value in data set [2] was 1.8.
`O=C1NCCn2c(-c3cccc(Oc4ccncc4)c3)nc3cccc1c32` [Example 17, 1-[3-(Pyridin-4-yloxy)-phenyl]-8,9-dihydro-7H-2,7,9a-triaza-benzo[cd]azulen-6-one] came in with a melting point of 245 to 247 °C. Further, the Ki in data set [1] is 4.8 nM and 5.3 nM. Moreover, in data set [2], the “Cytotoxicity Potentiation PF50” value is 1.7.
In the case of `O=C1NCCn2c(-c3ccc(F)cc3)nc3cc(F)cc1c32` [Example 18, 4-Fluoro-1-(4-fluoro-phenyl)-8,9-dihydro-7H-2,7,9a-triaza-benzo[cd]azulen-6-one], the melting point lay in the range of 284 to 287 °C. Besides, the Ki in data set [1] was found to be 3.4 nM. For the same compound, in data set [2], the “Cytotoxicity Potentiation PF50” value came to 2.
With `S=C1NCCn2c(-c3ccccc3)nc3cccc1c32` [Example 25, 1-Phenyl-8,9-dihydro-7H-2,7,9a-triaza-benzo[cd]azulen-6-thione], the melting point is 224 °C (dec.). Moreover, the “Cytotoxicity Potentiation PF50” value in data set [2] came out at 1.4.
`CN(C)Cc1cccc(-c2nc3cccc4c3n2CCNC4=O)c1` [Example 32, 1-(3-Dimethylaminomethyl-phenyl)-8,9-dihydro-7H-2,7,9a-triaza-benzo[cd]azulen-6-one]: the melting point was 192 to 194 °C (dec.). Further, the inhibition constant (Ki) in data set [1] stood at 6.3 nM. In addition, in data set [2], the “Cytotoxicity Potentiation PF50” value amounted to 1.8.
`O=C1NCCn2c(-c3ccc(Cl)cc3)cc3cccc1c32` [Example 34, 6-(4-Chlorophenyl)-3,4-dihydro-2H-[1,4]diazepino[6,7,1-hi]indol-1-one] showed a melting point of 178 to 180 °C. For the same compound, in data set [1], the Ki was determined as 11 nM. In addition, the “Cytotoxicity Potentiation PF50” value in data set [2] was 1.8.
The matching figures for `CNCc1cccc(-c2nc3cccc4c3n2CCNC4=O)c1` [Example 59, 1-(3-Methylaminomethyl-phenyl)-8,9-dihydro-7H-2,7,9a-triaza-benzo[cd]azulen-6-one]: 110 °C (dec.), 4.2 nM and 1.8.
`CNCc1ccc(-c2nc3cccc4c3n2CCNC4=O)cc1` [Example 75, 1-(4-Methylaminomethyl-phenyl)-8,9-dihydro-7H-2,7,9a-triaza-benzo[cd]azulen-6-one] showed a melting point of 169 to 172 °C. Moreover, the Ki in data set [1] stood at 1.9 nM. The “Cytotoxicity Potentiation PF50” value in data set [2] stood at 1.8.
In the same order, the values of `O=C1NCCn2c(-c3ccc(CN4CCOCC4)cc3)nc3cccc1c32` [Example 76, 1-(4-Morpholin-4-ylmethyl-phenyl)-8,9-dihydro-7H-2,7,9a-triaza-benzo[cd]azulen-6-one] are 285 to 286 °C (dec.), 5.1 nM and 1.6.
In the same order, the values of `COCCNCc1ccc(-c2nc3cccc4c3n2CCNC4=O)cc1` [Example 77, 1-(4-[(2-Methoxyethylamino)methyl]-phenyl)-8,9-dihydro-7H-2,7,9a-triaza-benzo[cd]azulen-6-one] are 154 to 157 °C, 6.9 nM and 1.7.
In the same order, the values of `CN(C)Cc1cccc(-c2cc3cccc4c3n2CCNC4=O)c1` [Example 86, 6-(3-Dimethylaminomethyl-phenyl)-3,4-dihydro-2H-[1,4]diazepino[6,7,1-hi]indol-1-one] are 98 to 100 °C, 9.1 nM and 1.6.
For `CNCc1ccc(-c2nc3cc(F)cc4c3n2CCNC4=O)cc1` [Example 98, 4-Fluoro-1-(4-methylaminomethyl-phenyl)-8,9-dihydro-7H-2,7,9a-triaza-benzo[cd]azulen-6-one], the melting point was 204 to 208 °C (dec.). In addition, the Ki in data set [1] amounted to 3.3 nM. Moreover, in data set [2], the “Cytotoxicity Potentiation PF50” value is on record as 2.1.
As to `CN(C)Cc1ccc(-c2nc3cc(F)cc4c3n2CCNC4=O)cc1` [Example 99, 4-Fluoro-1-(4-dimethylaminomethyl-phenyl)-8,9-dihydro-7H-2,7,9a-triaza-benzo[cd]azulen-6-one], the melting point was 240 °C (dec.). Besides, the Ki in data set [1] turned out to be 1.7 nM. Besides, the “Cytotoxicity Potentiation PF50” value in data set [2] is recorded as 2.0.
In the same order, the values of `O=C1NCCn2c(-c3ccc(CNC4CC4)cc3)nc3cccc1c32` [Example 101, 1-(4-Cyclopropylaminomethyl-phenyl)-8,9-dihydro-7H-2,7,9a-triaza-benzo[cd]azulen-6-one] are 84 °C (dec.), 2.3 nM and 2.1.
Regarding `O=C1NCCn2c(-c3ccc(-n4ccnc4)cc3)nc3cccc1c32` [Example 119, 1-(4-Imidazol-1-yl-phenyl)-8,9-dihydro-7H-2,7,9a-triaza-benzo[cd]azulen-6-one], the melting point is > 300 °C (dec.). For the same compound, in data set [1], the Ki was 3.2 nM and 4.2 nM. Moreover, in data set [2], the “Cytotoxicity Potentiation PF50” value amounted to 2.2.
For the compound `O=C1NCCn2c(-c3ccc(-c4ccccn4)cc3)nc3cccc1c32` [Example 126, 1-(4-Pyridin-2-yl-phenyl)-8,9-dihydro-7H-2,7,9a-triaza-benzo[cd]azulen-6-one], the melting point was in the range of 277 to 279 °C. For the same compound, in data set [1], the Ki is 4.1 nM. In addition, the “Cytotoxicity Potentiation PF50” value in data set [2] came out at 2.2.
`O=C1NCCn2c(-c3ccc(CCN4CCCC4)cc3)nc3cccc1c32` [Example 128, 1-[4-(2-Pyrrolidin-1-yl-ethyl)-phenyl]-8,9-dihydro-7H-2,7,9a-triaza-benzo[cd]azulen-6-one]: the melting point was > 201 °C (dec.). Also, in data set [1], the Ki was 4 nM and 5.4 nM. In data set [2], the “Cytotoxicity Potentiation PF50” value is reported as 1.8.
For the compound `CC(c1ccc(-c2nc3cccc4c3n2CCNC4=O)cc1)N(C)C` (stereo not drawn) [Example 245, 1-[4-(1-Dimethylamino-ethyl)-phenyl]-8,9-dihydro-7H-2,7,9a-triaza-benzo[cd]azulen-6-one], the inhibition constant (Ki) in data set [1] was determined as 5.8 nM. Further, in data set [2], the “Cytotoxicity Potentiation PF50” value is 2.1.
In the same order, the values of `CC(c1ccc(-c2nc3cccc4c3n2CCNC4=O)cc1)N1CCCC1` (stereo not drawn) [Example 246, 1-[4-(1-Pyrrolidin-1-yl-ethyl)-phenyl]-8,9-dihydro-7H-2,7,9a-triaza-benzo[cd]azulen-6-one] are 3.3 nM and 2.3.

The term Ki denotes a dissociation constant, usually derived from enzyme kinetics or from competition with a known ligand. For orientation: melting point means the temperature of the solid-liquid transition.
